Laboratory results from US20080038374A1, “New Use” (Lipopeptide AB, priority 2004, published 2008).
“And” between values parts separate entries of the source, which are not always exact repeats. Equal values may be shown once.

Tests used:
hCAP18 [1] = experiment: Expression of hCAP18 mRNA in human primary keratinocytes by Real-Time PCR; assay type: cell-based
Procedure: Human neonatal epidermal keratinocytes were obtained from Cascade Biologics, Inc. (Lot # 1C1145; Port-land, OR) and cultured in EpiLife serum-free keratinocyte growth medium (Cascade Biologics, Inc.) containing growth supplements and a calcium concentration of 0.06 mM. Cells at passage 3 were allowed to grow for three days to approximately 60% confluence. For calcium switch experiments, 1.5 mM CaCl2 (added from a 1 M stock solution) was added to the plates and after 48 hours the cells were regarded as differentiated (observed as an induction of mRNA expression of the two keratinocyte markers transglutaminase and cellular retinoic acid-binding protein II). The compounds assayed were 25-hydroxy-cholecalciferol (25-OH-D3), 1,25-dihydroxycholecalciferol (1,25-(OH)2-D3), and calcipotriol/MC 903 (Leo Pharmaceutical, Denmark). Their effect on hCAP18 expression was monitored by quantitivate PCR analysis.
Keratinocytes were grown as above and treated with said compounds for 4 h. RNA was extracted with the RNeasy kit (Qiagen) and reverse transcribed with a first strand synthesis kit (Amersham-Pharmacia). RNA was quantified by Real-Time PCR on an ABI Prism 7700 (Applied Biosystems) using 5 ng of cDNA according to standard protocols. The samples were evaluated in triplicates. Sequences were 5′-[…]-3′ and 5′-[…]-3′ for the primers, and 5′-[…]-3′ for the fluorigenic probe. The samples were normalized by quantification of 18S-RNA (Assay on Demand, Applied Biosystems).
To assess the specificity of the vitamin D regulation on the hCAP18 gene, the vitamin D3 precursor 7-dehydrocholesterol (7-DHC) was assayed at a concentration of 1 μM as in Example 1. 7-DHC had no effect on hCAP18 expression. […] Assays were performed and measured as above. The effect of 1,25-(OH)2-D3 is shown for comparison.

hCAP18 [2] = conditions: keratinocytes and leukocytes in vitro; cited from earlier work
hCAP18 promoter = experiment: Stimulation of the hCAP18 promoter at different concentrations (FIG. 4); assay type: cell-based, human; conditions: tested at 1, 10, 100 and 1000 nM
Procedure: To assess whether physiological levels were sufficient to induce the stimulation of the hCAP18 promoter, the study was performed at the different concentrations 1, 10, 100 and 1000 nM of 1,25-(OH)2-D3 and 25-OH-D3 (FIG. 4). […] The physiologic serum concentration of 25-OH-vitamin D3 is between 20 nM and 125 nM, whereas the 1,25-(OH)2-D3 is present in pM concentration. A dosage form of a vitamin D compound for topical administration includes for instance about 1-100, preferably 5-50 μg vitamin D compound per gram composition.

dermatitis = conditions: topical, 0.03-1.0 μg/g of composition; type of dermatitis not stated; cited from earlier work
hCAP18 [3] = experiment: hCAP18/LL-37 expression in skin of healthy volunteers after topical application; assay type: in vivo, human; conditions: 0.002% solution topical, 4 days, three healthy volunteers
Procedure: To assay whether 1,25-(OH)2-D3 stimulated hCAP18 expression in vivo, we applied 1,25-(OH)2D3 to the skin of three healthy individuals.
A stock solution of 4 mM 1,25-dihydroxyvitamin D3 in isopropanol was diluted in ethanol:propylene glycol [70:30] to a final vitamin D concentration of 0.002%. The vehicle containing ethanol 96% and propylene glycol [70:30] with 0.5 mg/ml BHT (butylated hydroxy toluene) served as control. In a room with dim light, the vitamin D and the control were locally applied to the skin (the right and left upper arm respectively) of three healthy volunteers. The test area of 2×2.5 cm on each arm was cleaned with saline solution (NaCl 0.9) before application. Evaporation time for the solutions of vitamin D and the vehicle varied between 8 and 15 minutes. The tested area was then covered with plastic film and band-aid (Gladpack, Melolin and Mefix). After 4 days the band-aid and the plastic film was removed and the test area was rapidly cleaned with 40% ethanol. Punch biopsies (4 mm) were obtained from the test area (after infiltration anesthesia with 2-3 ml Xylocaln with epinefrin) and were frozen instantly. […] Protein concentrations were measured by Protein Assay Kit (Bio-Rad Laboratories, Hercules Calif.) based on the Bradford method (Bradford, 1976) and samples were diluted to a final protein concentration of 1 mg per ml. […]

hCAP18 [4] = experiment: hCAP18 mRNA in skin of atopic dermatitis patients, Real-Time PCR; assay type: in vivo, human; design: hCAP18 mRNA, Non-lesional skin, Treated / hCAP18 mRNA, Lesional skin, Treated: unit not given here; conditions: 0.002% topical, 4 days, one patient per row
Procedure: To assay whether 1,25-(OH)2-D3 stimulated hCAP18 expression in atopic dermatitis, we applied 1,25-(OH)2-D3 on the skin of four individuals, two females and two men, with active atopic dermatitis. The patients had suffered from the eczema for 11-30 years. The diagnosis was made by a dermatologist. A stock solution of 4 mM 1,25-(OH)2-D3 in isopropanol was diluted in ethanol:propylene glycol (70:30) to a final concentration of 0.002%. To prevent deactivation of 1,25-(OH)2-D3, the procedure was performed in a room with dim light. The 1,25-(OH)2-D3 were locally applied on lesional and non-lesional skin area of patients. The skin surface was cleaned with saline solution (NaCl 0.9) before application. The treated skin area was measured to 2×2.25 cm. Evaporation time for the solutions of 1,25-(OH)2-D3 varied between 8 and 15 minutes. The skin area was then covered with plastic film and band-aid (Quickpack: Haushalt und Hygiene GmbH, Renningen, Germany; Melolin: Smith and Nephew, Hull, UK; Mefix: Molnlycke A B, Gothenburg, Sweden). After 4 days the band-aid and the plastic film were removed and the skin areas were rapidly cleaned with 40% ethanol. Punch biopsies (4 mm) were obtained from the treated skin areas (after infiltration anesthesia with 2-3 ml Xylocaln with epinephrin) and frozen instantly. On the first day, control biopsies were also obtained from non-treated lesional and non-lesional skin and the tissues were snap-frozen as described. RNA was extracted and hCAP18 mRNA expression determined by Real-Time PCR as described above in Example 1.

acute wounds = conditions: Wistar rats, intraperitonial; cited from earlier work
angiogenesis = conditions: cited from earlier work

Compound: C=C1/C(=C\C=C2/CCC[C@]3(C)[C@@H]([C@H](C)/C=C/[C@H](C)C(C)(C)O)CC[C@@H]23)C[C@@H](O)C[C@@H]1O [1,25-(OH)2-D2, 1,25-dihydroxyergocalciferol]
- activity on hCAP18 expression compared with 1,25-(OH)2-D3 (hCAP18 [1]; concentration not given): activity comparable to 1,25-(OH)-D3

Compound: C=C1/C(=C\C=C2/CCC[C@]3(C)[C@@H]([C@H](C)CCCC(C)(C)O)CC[C@@H]23)C[C@@H](O)C[C@@H]1O [1,25-(OH)2-D3, 1,25-dihydroxy-cholecalciferol]
- expression of hCAP18 (hCAP18 [2]): directly induces
- level down to which a substantial portion of stimulation remained (hCAP18 promoter): 10 nM
- effect on dermatitis (dermatitis): marked effect
- expression of hCAP18 and production of LL-37 in human skin in vivo (hCAP18 [3]): Up-Regulates
- Increase (treated/untreated), Lesional skin (hCAP18 [4]; lesional skin): 5638% and 79756% and 977% and 220%
- hCAP18 mRNA, Lesional skin, Treated (hCAP18 [4]; lesional skin): 1093 and 539 and 64 and 29
- Increase (treated/untreated), Non-lesional skin (hCAP18 [4]; non-lesional skin): 13104% and 520% and 841% and 459%
- hCAP18 mRNA, Non-lesional skin, Treated (hCAP18 [4]; non-lesional skin): 739.4 and 24.8 and 24.2 and 8.1

Compound: C=C1/C(=C\C=C2/CCC[C@]3(C)[C@@H]([C@H](C)CCCC(C)C)CC[C@@H]23)C[C@@H](O)C[C@@H]1O [1α-OH-cholecalciferol, 1-alpha-hydroxycholecalciferol]
- effect on dermatitis (dermatitis): marked effect

Compound: CC(C)CCC[C@@H](C)[C@H]1CC[C@H]2C3=CC=C4C[C@@H](O)CC[C@]4(C)[C@H]3CC[C@]12C [7-DHC, 7-dehydrocholesterol]
- effect on hCAP18 expression (hCAP18 [1]; 1 μM, as in Example 1): no effect

Compound: C=C1CC[C@H](O)C/C1=C/C=C1\CCC[C@]2(C)[C@@H]([C@H](C)CC[C@@H](O)C(C)(C)O)CC[C@@H]12 [24,25-dihydroxycholecalciferol]
- effect on dermatitis (dermatitis): no effect

Compound: C=C1CC[C@H](O)C/C1=C/C=C1\CCC[C@]2(C)[C@@H]([C@H](C)CCCC(C)(C)O)CC[C@@H]12 [25-OH-D3, 25-hydroxy-cholecalciferol]
- level down to which a substantial portion of stimulation remained (hCAP18 promoter): 10 nM

Compound: [Ca+2].[Cl-].[Cl-] [calcium, CaCl2]
- increase of hCAP18 expression by induction of differentiation (hCAP18 [1]; 1.5 mM CaCl2, 48 hours, keratinocytes): about 1.5 fold

Compound: C=C1CC[C@H](O)C/C1=C/C=C1\CCC[C@]2(C)[C@@H]([C@H](C)CCCC(C)C)CC[C@@H]12 [cholecalciferol]
- effect on dermatitis (dermatitis): no effect
- re-epithelization of acute wounds (acute wounds): accelerates
- wound breaking strength (acute wounds): increases

Compound: C=C1CC[C@H](O)C/C1=C/C=C1\CCC[C@]2(C)[C@@H]([C@H](C)/C=C/[C@H](C)C(C)C)CC[C@@H]12 [ergocalciferol]
- effect on dermatitis (dermatitis): no effect

Compound: LL-37/hCAP18: endogenous 37 amino acid antimicrobial peptide released by proteolytic cleavage of hCAP18 (LLGDFFRKSKEKIGKEFKRIVQRIKDFLRNLVPRTES; Antibacterial peptide LL-37; UniProt P49913 134-170, looked up)
- angiogenesis (angiogenesis): induces functionally important angiogenesis
